{
  "source": "patent US20250275917A1",
  "about": "“TOPICAL FOAMABLE PHARMACEUTICAL COMPOSITION” (EUROFARMA LABORATORIOS S.A., priority 2021, published 2025)",
  "origin": "cited, not measured here",
  "settings": "systemic absorption",
  "data": [
    {"smiles": "Nc1cc(N2CCCCC2)nc(N)[n+]1[O-]", "note": "[Minoxidil]", "values": [
      {"measurement": "concentration associated with adverse effects", "value": 20, "unit": "ng/mL"}
    ]}
  ]
}
